Results as given in patent EP4494632A1, “LIPOPHILIC-BASED COMPOSITION” (Consejo Superior de Investigaciones Científicas (CSIC), priority 2023, dated 2025).
Like-named read-outs stand apart in the source and are kept apart here.

How the values were obtained:
in vitro [1] = assay: in vitro
From the text: (§1) Furthermore, porcine skin permeation is studied. As mentioned in the introduction, the barrier structure of the skin differs greatly from that of the mucosae. In this sense, it will be evaluated whether the mucosae modified both by lipophilic compositions and by compositions that mimic the stratum corneum could have a barrier effect similar to that of the skin.
(§2) Next, the main physicochemical properties which are important in permeability through keratin tissues, such as the skin and mucosae, and the classification to which they belong are described in detail. […] Compounds to be evaluated, physicochemical properties, and classification.
(§3) As in the previous TEWL study, sublingual mucosa and porcine skin dermatomized to a thickness of 500-700 µm are used. Kinetic diffusion studies were performed using a vertical diffusion cell (Lara Spiral, Couternon, France (1.86 cm^2 and 3 ml). The receiver fluid (RF) used was PBS:EtOH (1:1). A water bath was set at 43°C to obtain a membrane surface temperature of 32 ± 1°C.
(§4) Subsequently, the drugs are deposited to determine their kinetics. To that end, 300 µl (infinite dose) of the 1% solution of the 4 drugs in methanol were applied to each Franz cell, in triplicate. Aliquots of 0.2 ml were collected at different times (30 min, 1 h, 2 h, 4 h). The active ingredients were diluted in suitable graduated flasks and filtered through a 0.22 µm nylon filter (Cameo, Sigma-Aldrich, St Louis, U. S.A.). They were then further analyzed with a high performance liquid chromatography diode array detector (HPLC-DAD).
(§5) The software used was OpenLab. […] The ICH guidelines were followed to obtain the calibration curve, the limit of quantification (LoQ), and the limit of detection (LoD). The HPLC-DAD analytical conditions and the method for the four active ingredients are described in detail in Table 4.
(§6) The equation is as follows (1): Qn = (Cn × Vc + ∑i = 1^(n−1) (Ci×Vs))/(A) [formula]
(§7) Wherein: Qn is the cumulative amount of active ingredient released at time n (µg/cm^2); Cn is the concentration of active ingredient in the sample (µg/ml); Vc is the volume of the vertical diffusion cell (7 ml); ∑i = 1^(n−1) Ci [formula] is the sum of the API concentrations (µg/ml) determined at sampling intervals 1 to n-1; Vs is the volume of the sample, and A is the surface area of the sample (1.77 cm^2).
(§8) Two parameters were used, Qn and % API release, to obtain graphs showing absorption and penetration kinetics (Y-axis). Time or its square root (√t) is indicated on the X-axis. […] This step allowed determining the best absorption model to represent the penetration kinetics of the API through the different membranes. The model was obtained with the non-linear regression software STATGRAPHICS plus 5 (Statgraphics Technologies, Inc., Virginia, U. S.A.), and the best equation was selected based on the highest correlation coefficient corrected by the number of degrees of freedom (R2 DoF). Once having defined the model, it was possible to calculate other parameters, such as the flow (J), permeability coefficient (Kp), delay time (TI), maximum concentration (Cmax), maximum time (tmax), and area under the curve (AUC). All results are expressed as mean ± standard deviation (SD).

in vitro [2] = settings: for Permea. coeff., Kp / Cmax at 1 %: pig; for Cmax at 1 %: Conc. Max.
From the text: as §1, §2, §3
After 1 h, the TEWL is measured again (Table 3). Table 3. Application of the composition F-MI and evaluation of transepidermal water loss, from the skin, from porcine sublingual mucosa and from the same mucosa modified by applying composition F-MI before applying the drugs.
as §4, §5, §6, §7, §8

[3] = BCS group; cited from earlier work
[4] = cited from earlier work
[5] = Kinetic permeation of biocides using vertical Franz diffusion cells
Protocol: as §3, §4, §6, §7, §8
(§9) Furthermore, porcine skin permeation is studied. As mentioned in the introduction, the barrier structure of the skin differs greatly from that of the mucosae.
(§10) The biocides evaluated were fungitrol (FUN), propiconazole (PRO), and permethrin (PER) dissolved in ethanol at a concentration of 1% for each active ingredient. […] Table 9. Biocides and their physicochemical properties.
(§11) Table 10. Conditions of the method which are used in HPLC/DAD analysis for fungitrol, propiconazole, and permethrin

[6] = as above; remark: listed apart in the source
Protocol: as §3, §4, §6, §7, §8, §9, §10, §11

[7] = sublingual mucosa with F-MI, 1% in ethanol
[8] = unmodified sublingual mucosa, 1% in ethanol
[9] = skin, 300 µl of 1% solution in methanol

| SMILES | Area under the curve, AUC (in vitro [1]) [mg/cm^2] | Flow, J (in vitro [1]; pig, 1 %) | Latency time, LT (in vitro [1]; pig, 1 %) | Group [3] | Flow, J [5, 7] [µg/cm^2/h] | Latency time, LT [5, 7] [h] | Permea. coeff., Kp [5, 7] | Flow, J [5, 8] [µg/cm^2/h] | Latency time, LT [5, 8] [h] | LogP (pH 7.4) ([4]; biocides, Table 9, PubChem) | Flow, J ([6]; skin, 1% in ethanol) [µg/cm^2/h] | Latency time, LT ([6]; skin, 1% in ethanol) [h] | further results |
| --- | --- | --- | --- | --- | --- | --- | --- | --- | --- | --- | --- | --- | --- |
| Cn1c(=O)c2c(ncn2C)n(C)c1=O [Caffeine (CAF), Caffeine] | 0.41±0.27 | 75.09±51.32 µg/cm^2/h | 0.65 ± 0.24 h | 1 | – | – | – | – | – | – | – | – | Conc. Max., Cmax (in vitro [1]): 107.23±57.7 3 µg/ml; Permea. coeff., Kp (in vitro [1]; pig): 6.06±4.12 10^-3cm/h; Permea. coeff., Kp (in vitro [2]): 34.55±6.56 10^-3cm/h; Permea. coeff., Kp (in vitro [2]; 1 h): 8.28±2.48 10^-3cm/h |
| C[C@@H]1C[C@H]2[C@@H]3CCC4=CC(=O)C=C[C@]4(C)[C@@]3(F)[C@@H](O)C[C@]2(C)[C@@]1(O)C(=O)CO [Dexamethasone (DEX), Dexamethasone] | 0.03±0.01 | 5,84±3,46 µg/cm^2/h | 0,62±0,16 h | – | – | – | – | – | – | – | – | – | Cmax at 1 % (in vitro [1]; pig): 67400 ng/mL; Cmax at 1 % (in vitro [2]): 315 µg/mL; LogP (pH 7.4) ([4]; drugs, Table 2): 1.74 |
| CCCCNC(=O)OCC#CI [Fungitrol (FUN), 3-lodo-2-propynyl butylcarbamate] | – | – | – | – | 5.59±1.32 | 0.65 ± 0.08 | 0.61±0.14 10^-3cm/h | 62.88±29.97 | -0.34 ± 1.32 | 2.4 | 6.02±3.93 | 0.70 ± 0.00 | Permea. coeff., Kp [5, 8]: 6.80±3.26 10^-3cm/h; Permea. coeff., Kp ([6]; skin, 1% in ethanol): 1.00±0.40 10^-3cm/h |
| CC(C)Cc1ccc(C(C)C(=O)O)cc1 (centres unmarked) [Ibuprofen (IBU), Ibuprofen] | 0.10 ± 0.01 | 24.79 ± 2.75 µg/cm^2/h | -0.24 ± 0.19 h | 2 | – | – | – | – | – | – | – | – | Cmax at 1 % (in vitro [1]; pig): 21900 ± 1980 ng/mL; Permea. coeff., Kp (in vitro [1]; pig): 2.05 ± 0.23 10^-3cm/h; Permea. coeff., Kp (in vitro [2]): 28.67±0.49 10^-3cm/h; Permea. coeff., Kp (in vitro [2]; 1 h): 41.18±4.09 10^-3cm/h; Cmax at 1 % (in vitro [2]): 341 ± 63.6 µg/mL |
| CC[C@H](C)[C@H]1O[C@]2(CC[C@@H]1C)C[C@@H]1C[C@@H](C/C=C(\C)[C@@H](O[C@H]3C[C@H](OC)[C@@H](O[C@H]4C[C@H](OC)[C@@H](O)[C@H](C)O4)[C@H](C)O3)[C@@H](C)/C=C/C=C3\CO[C@@H]4[C@H](O)C(C)=C[C@@H](C(=O)O1)[C@]34O)O2 [Ivermectin (IVE), Ivermectin] | – | – | – | 4 | – | – | – | – | – | – | – | – | Flow, J (in vitro [1]; [9]): 3.13±0.86 µg/cm^2/h; Latency time, LT (in vitro [1]; [9]): 0.59 ± 0.28 h; permeability through the unmodified mucosa compared to the skin (in vitro [2]): 20 times; Latency time, LT (in vitro [2]; sublingual mucosa with F-MI (70 µl deposited 1 h before), 1% solution in methanol): 0.28 ± 0.02 h; Flow, J (in vitro [2]; unmodified sublingual mucosa, 1% solution in methanol): 63.75±1.57 µg/cm^2/h; LogP (pH 7.4) ([4]; drugs, Table 2): 5.83 |
| CC1(C)C(C=C(Cl)Cl)C1C(=O)OCc1cccc(Oc2ccccc2)c1 (centres unmarked) [Permethrin (PER), Permethrin] | – | – | – | – | 3.85±4.00 | -0.28 ± 1.77 | 0.26±0.27 10^-3cm/h | 58.67±45.51 | -0.53 ± 1.14 | 6.5 | 2.93±0.23 | -1.49 ± 0.66 | Cmax at 1 % ([5]; pig): 15700 ± 20300 ng/mL; Permea. coeff., Kp ([5]; pig): 4.02±3.12 10^-3cm/h; Cmax at 1 % ([6]; pig): 9350 ± 110 ng/mL; Permea. coeff., Kp ([6]; pig): 0.20±0.015 10^-3cm/h |
| CCCC1COC(Cn2cncn2)(c2ccc(Cl)cc2Cl)O1 (centres unmarked) [Propiconazole (PRO), Propiconazole] | – | – | – | – | 6.62±3.74 | 1.66 ± 1.00 | 0.70±0.39 10^-3cm/h | 63.92±44.92 | -0.04 ± 1.68 | 3.7 | 2.26±1.48 | 0.60 ± 0.015 | Permea. coeff., Kp [5, 8]: 6.80±4.78 10^-3cm/h; Permea. coeff., Kp ([6]; pig): 0.24±0.16 10^-3cm/h |
